Structures are written as SMILES.

The values that follow come from publication PMC12040169 (PLOS Biology, 2025).

The data set in a line: in vitro. To be noted: human, hela cells, % viability.
As a reminder, the viability is a read-out of living cells in per cent, often relative to untreated cells. Turning to `COc1ccc(S(=O)(=O)n2ccc3cc(N4CCN(C)CC4)ccc32)cc1OC` [CBK000286C], the viability at 28.5 h, 10 µM turned out to be 79.6%.
Turning to `CN(C)CCN(C)C(=O)c1ccc(-c2cccc(N(C)C)c2)nc1N(C)C` [CBK106077], the viability at 28.5 h, 10 µM turned out to be 89.6%.
Turning to `CCN(CC)C(=O)c1ccccc1NS(=O)(=O)c1cc(Br)ccc1OC` [CBK045422], the viability at 28.5 h, 10 µM was determined as 89.6%.
Regarding `Cc1ccc2c(c1)N(CCO)/C(=C/c1sc3ccccc3[n+]1CCCS(=O)(=O)[O-])S2` [CBK293965], the viability at 28.5 h, 10 µM is 93.5%.
With `Cc1cc(NS(=O)(=O)c2ccc(Cl)c(Cl)c2)n(C)n1` [CBK067254], the viability at 28.5 h, 10 µM worked out at 109%.
With `COC(=O)c1cc(C)sc1NC(=S)Nc1ccn(Cc2ccc(Br)cc2)n1` [CBK266934] the figure was 99.6%; with `Cc1ccc(-c2n[nH]c(=S)n2CC(=O)N(C)Cc2ccc(N3CCOCC3)cc2)cc1` [CBK297908], 85.9%.
With `CCCc1n[nH]c(Cc2c(Cl)cccc2Cl)c1C(=O)OCC` [CBK113275] the figure was 88.9%; with `COc1ccccc1CN1CCc2[nH]c(=S)[nH]c(=O)c2C1` [CBK288495], 104%.
With `COc1ccc(NC(=O)COc2noc3nc(C)c(C)c(C)c23)cc1OC` [CBK269526] the figure was 108%; with `O=C(NCc1cccnc1)c1ncoc1-c1cccs1` [CBK283974], 87.5%; with `O=C(Nc1ccc(S(=O)(=O)NCCN2CCOCC2)cc1)N1CCCC1` [CBK270015], 89.8%.
For `COc1cccc(C(=O)N2CC=C[C@H]2C(=O)NC2CC2)c1` [CBK284278], the viability at 28.5 h, 10 µM is 94.4%.
Turning to `Cc1ccc(Cc2cnc(NC(=O)c3ccoc3C)s2)cc1C` [CBK298277], the viability at 28.5 h, 10 µM came out at 80.1%.
With `Cc1ccc(C)n1-c1cccc(C(=O)N2CCn3cnnc3C2)c1` [CBK283646] the figure was 96.2%; with `CC(C)c1nn(C)c(N(C)C)c1CNCCc1cnn(C)c1` [CBK305135], 108%.
With `NC(=O)C1CCN(C(=O)CCCSc2nc(-c3ccco3)cc(C(F)(F)F)n2)CC1` [CBK268844] the figure was 98.5%.
With `O=C(Nc1nnc(C2=COCCO2)o1)c1ccc(Cl)cc1Cl` [CBK287419] the figure was 78%; with `C[C@H](Nc1nc(-c2cccc(-c3ccccc3)c2)cnc1N)c1ccccc1` [CBK063752], 94.5%; with `c1ccc(Oc2ccccc2-c2cc(N3CCN(c4ccccn4)CC3)ncn2)cc1` [CBK091083], 91.5%.
Consider `c1ccc2c(OCCOCCN3CCCCC3)cccc2c1` [CBK262000], for which the viability at 28.5 h, 10 µM was determined as 88%.
With `Cc1cc(C)c2c(c1)cc(C)c1nn(CC(=O)NC3CC3)c(=O)n12` [CBK283877] the figure was 83.5%.
With `Nc1nc(OCCN2CCOCC2)cnc1-c1cc(Cl)cc(Cl)c1` [CBK145198] the figure was 99.8%.
Regarding `Fc1ccccc1CN1CCC(Oc2nccnc2OCC2COc3ccccc3O2)CC1` (stereo not shown) [CBK082979T], the viability at 28.5 h, 10 µM was 101%.
With `COc1ccc(-c2cnc3[nH]c(=O)n(Cc4ccccc4)c3n2)cc1` [CBK064210] the figure was 103%; with `Cn1c(SCC(=O)Nc2ccc(N3CCOCC3)c(Cl)c2)nnc1-c1ccc(N)cc1` [CBK265777], 102%; with `Cc1nn(-c2ccc(F)cc2)c2[nH]c(=O)c(CNC3CC3)cc12` [CBK283121], 98.1%.
With `O=C(O)c1ccc(NC(=O)c2cc(-n3cnnc3)ccc2Cl)cc1` [CBK286613] the figure was 111%.
`NS(=O)(=O)c1ccccc1Cl` [CBK113172]: the viability at 28.5 h, 10 µM was 98.1%.
Regarding `CC(C)(C)C(=O)N1CCC(C(=O)NC(c2ccc3c(c2)OCO3)c2ccccn2)CC1` (stereo not shown) [CBK060074], the viability at 28.5 h, 10 µM stood at 110%.
With `CCOC(=O)c1c(NC(=O)C2CC(Cl)=CCC2C(=O)O)sc2c1CCCCC2` (stereo not shown) [CBK264263] the figure was 90.2%; with `CSCCCNC(=O)N1CCN(CCN2CCOCC2)CC1` [CBK155669], 90.9%; with `Cc1ccc2c(c1)C1(CCN(C/C=C\c3ccccc3)CC1)NC(=O)C2` [CBK040216], 94.1%.
With `Cc1nn(C)c2c1c(=O)n(C)c(=O)n2C` [CBK026140] the figure was 89.2%.
With `Fc1cccc(-c2nccnc2NCCc2ccncc2)c1` [CBK036763] the figure was 95.8%; with `COc1ccc([C@@]23CC[C@@H](NC(=O)Nc4ccc5c(c4)OC(F)(F)O5)C[C@@H]2N(C)CC3)cc1OC` [CBK073743T], 88.8%.
As to `CSc1cc(-c2ccc(Cl)cc2)c(C(=O)O)s1` [CBK126740], the viability at 28.5 h, 10 µM stood at 80.3%.
With `CC(NC(=O)c1c2c(nn1C)CCCC2)c1ccccn1` (stereo not shown) [CBK281888] the figure was 95.2%.
With `O=C(O)CCCC(=O)Nc1ccccc1Br` [CBK261322] the figure was 102%.
As for `COc1ccc(CN2CCN(c3nccnc3NS(C)(=O)=O)CC2)cc1` [CBK084273], the viability at 28.5 h, 10 µM came to 88.7%.
With `CC(=O)Nc1ccc(C(=O)NCc2ccc(OCC(F)(F)F)cc2)cc1` [CBK305732] the figure was 98%; with `O=[N+]([O-])c1ccc(N2CCN(S(=O)(=O)c3ccc4ccccc4c3)CC2)cc1` [CBK157773], 93.6%.
Turning to `O=C(NCc1cccc2ccccc12)N1CCN(c2ccccc2)CC1` [CBK155175], the viability at 28.5 h, 10 µM turned out to be 89.1%.
With `CCOC(=O)CNC(=S)N[C@H]1CC[C@@]2(c3cccnc3)CCN(Cc3ccccc3)[C@H]2C1` [CBK028453] the figure was 115%.
With `Nc1ncc(-c2ccc(CN3CCOCC3)cc2)nc1-c1ccc(O)cc1` [CBK123798] the figure was 93.9%; with `O=C(COc1nc2ccccc2s1)N1N=CCC1c1ccccc1` (stereo not shown) [CBK270188], 92.7%.
With `COc1ccc(-c2csc(NS(=O)(=O)c3c(C)cc(Cl)cc3Cl)n2)cc1` [CBK000814] the figure was 104%.
For `COc1ccc(C(O)Cn2c(=N)n(CCN3CCCCC3)c3ccccc32)cc1` (stereo not shown) [CBK262930C], the viability at 28.5 h, 10 µM was determined as 98.8%.
Regarding `Clc1ccc(COc2cccc3c2CCCC3)cn1` [CBK002634], the viability at 28.5 h, 10 µM came to 102%.
With `Cc1nnc(SCC(=O)Nn2c(-c3ccccc3)nc3ccccc3c2=O)[nH]1` [CBK268841] the figure was 86.8%; with `Cc1ccccc1C(NC(=O)C1CCN(C(=O)c2ccccc2)CC1)c1ccccn1` (stereo not shown) [CBK059720], 94.5%; with `CCCC(=O)c1ccc(S(=O)(=O)N2CCCN(Cc3ccc(F)cc3Cl)CC2)cc1` [CBK062917], 116%.
With `CSc1ccc(-n2ncc(-c3cccc(C(F)(F)F)c3)n2)cc1` [CBK112666] the figure was 93.6%; with `NC(=O)C1(N2CCCCC2)CCN(C(=S)NC2CCCC2)CC1` [CBK091884], 88.1%.
For the molecule `Cc1ccnc(-n2sc3ccccc3c2=O)n1` [CBK116499], the viability at 28.5 h, 10 µM came to 97.1%.
In the case of `O=C(NCc1ccc(OC2CCNCC2)cc1)c1coc2c1C(=O)CCC2` [CBK038944T], the viability at 28.5 h, 10 µM turned out to be 101%.
With `Cn1c(SCC(=O)c2ccc(Cl)cc2)nnc1-c1cnccc1C(F)(F)F` [CBK067698] the figure was 110%; with `COc1ccc(S(=O)(=O)N2CCN(C(=O)c3cc(-c4ccncc4)nc4ccc(Br)cc34)CC2)cc1` [CBK267750], 101%; with `Cc1nn(CCC#N)c(C)c1[C@@H]1C=C[C@@H](NS(=O)(=O)c2ccccc2)C1` [CBK288805], 91%.
With `CC(NC(=O)C1C=CCN1S(C)(=O)=O)c1ccc2c(c1)CCC2` (stereo not shown) [CBK282667] the figure was 88.7%; with `CCc1cccc2c(CN3CCc4c(nc(C)[nH]c4=O)C3)c[nH]c12` [CBK283993], 94.6%.
With `COc1cc(NC(=O)CC2(CC(=O)O)CCCCC2)ccc1N1CCCC1=O` [CBK296637] the figure was 105%; with `N#CC1=C(SCc2ccccc2)SC(c2ccc(O)c(O)c2)NC1=O` (stereo not shown) [CBK293972], 105%; with `Cc1ccc(COC(CN2CCCCCC2)CN2CCCCCC2)cc1` [CBK278236C], 100%.
Regarding `CC(N)C1CCCN(S(=O)(=O)c2ccc(OCc3ncnn3C)cc2)C1` (stereo not shown) [CBK304105], the viability at 28.5 h, 10 µM came to 114%.
For the molecule `CCn1nc(C)cc1C(=O)N1Cc2cnn(Cc3ccc(F)cc3)c2C1` [CBK306574], the viability at 28.5 h, 10 µM is 96.7%.
With `CCSc1nnc(-c2cccnc2)n1Cc1ccccc1` [CBK076664] the figure was 84.4%; with `O=C(Nc1ccccc1Cl)c1ccc(NCCN2C(=O)c3ccccc3C2=O)c([N+](=O)[O-])c1` [CBK267149], 95.8%.
Turning to `O=c1ccc2c(-c3cccc(C(F)(F)F)c3)ccnc2[nH]1` [CBK073733], the viability at 28.5 h, 10 µM stood at 90.5%.
For the molecule `Cc1ccc2oc3c(c(=O)c2c1)C(c1ccc(OCC(N)=O)cc1)N(Cc1ccc2c(c1)OCO2)C3=O` (stereo not shown) [CBK267189], the viability at 28.5 h, 10 µM is 91.3%.
With `CCCCNC(=O)N(O)C1N(C)C(=S)SC1(C)C` (stereo not shown) [CBK006880] the figure was 91.2%.
Regarding `CC(=O)Nc1ccccc1-c1nc2ccccc2o1` [CBK287568], the viability at 28.5 h, 10 µM is 100%.
Regarding `CCOC(=O)C1CCN(Cc2nc(-c3ccc(OC)c(OC)c3)no2)CC1` [CBK268852], the viability at 28.5 h, 10 µM stood at 92.4%.
Turning to `COC(=O)CCc1ccc(S(=O)(=O)N2CCCN(Cc3c(-c4ccccc4)noc3C)CC2)cc1` [CBK063011], the viability at 28.5 h, 10 µM amounted to 97.3%.
With `Brc1cn2ccnc2c(NCc2ccccn2)n1` [CBK038024] the figure was 88.7%; with `Cc1ccc(NC(=O)CCc2c(C)nc(N3CCOCC3)[nH]c2=O)cc1` [CBK304985], 98.2%; with `Cc1cc(C)nc(NC(=O)C(C)Oc2ccc(Cl)cc2C)n1` (stereo not shown) [CBK268111], 94.8%.
With `O=C(NCc1ccc2c(c1)OCO2)c1cnc2sccn2c1=O` [CBK287446] the figure was 91%; with `NC(=O)c1ccc(NC(=O)N2CCN(CCN3CCOCC3)CC2)cc1` [CBK155831], 81.6%.
